In one test the test system is TLR4. As to the kind of experiment: LPS-induced PMN transendothelial migration, PMNs from wild type C3H/HeN mice. The format is cell-based. As for the experimental part:
To obtain mice neutrophils from TLR4-deficient [TLR4(−/−)] C3H/HeJ mice and wild type C3H/HeN mice, inflammation was induced by 0.1 ml of uric acid solution into the peritoneal cavity of the mouse. The uric acid solution (noncrystalline form) was prepared by mixing with saline (10% [wt/vol]) and sonicated for 10 min. Immediately before inoculation, the milky white precipitated uric acid solution was shaken vigorously. Peritoneal exudate cells were harvested 4, 18, or 24 h after injection by two lavages of the peritoneal cavity with 5 ml of cold phosphate-buffered saline (PBS; total volume, 10 ml). Uric acid-induced peritoneal cells (UAPMN) were washed by centrifugation at 200×g for 10 min at 4° C. Followed by hypotonic lysis to eliminate red blood cells, centrifugation and an additional wash were performed. The cells were then resuspended in Krebs-Ringer phosphate buffer (KRG; pH 7.3). The numbers and populations of peritoneal exudate cells were determined by staining the nuclei with Turk reagent and by cytospin centrifugation followed by May-Grünwald-Giemsa staining, respectively. Uric acid injection into the peritoneal cavity gave a yield of 1 to 2×10^7 cells/mouse depending on time of incubation (4 hr). The levels of purity of the uric acid-induced PMN were 95% after 4 h postinjection. Viability of the isolated neutrophils exceeded 95% as determined by trypan blue exclusion. The PMN from TLR4(−/−) C3H/HeJ mice and wild type C3H/HeN mice were then used for PMN transmigration Assay.
Neutrophils from human were isolated blood that was drawn in a syringe containing preservative-free heparin (20 U/ml final), and mixed with an equal volume of PBS containing 3% dextran and then incubated for 20 min at room temperature. The leukocyte-rich plasma (upper layer) was collected and pellet cells was obtained from the plasma by centrifuge and resuspended in 0.9% NaCl. Layer 10 ml Ficoll-Hypaque solution beneath the cell suspension. After centrifuge 1500×g for 20 min, aspirate the Ficoll-Hypaque layer, leaving the neutrophil/RBC pellet. Cells were subjected to hypotonic lysis by resuspending each neutrophil/RBC pellet in cold 0.2% NaCl for 30 sec. At the end of this period, restore isotonicity by adding ice-cold 1.6% NaCl. After centrifuge, resuspend cells in ice-cold PBS/glucose buffer. Neutrophils from mice were isolated from the peritoneum as previously described. See, e.g., Rabes et al., Curr Top Microbiol Immunol 397:215-227 (2016). The cell concentration was adjusted to […]. The viability of the isolated neutrophils exceeded 95%, as determined by Trypan blue exclusion.
Transendothelial migration was performed by using a Transwell system. Transwell filters were pre-seeded with HUVEC monolayers for 24 hrs and transferred to clean 24-well plates. HUVECs were washed twice with DPBS, 500 μl of ECM was added to the Transwell filter compartment and 10^6 neutrophils were then added in upper chamber. Transendothelial migration was stimulated by addition of LPS to the lower chamber to a final concentration of 1 μg/ml. Cells were incubated with the endothelial cells for 1 h at 37° C. At the conclusion of the incubation, migrated cells were collected from the lower chamber and counted in a hemacytometer in triplicate. Percent PMN transmigration was calculated by dividing the number of PMN recovered from the lower chamber by the number of PMN initially added.
PMN transendothelial migration plays an important role in early stage of atherogenesis. […].

Test [1] is described as follows: Serum insulin level (sandwich ELISA) in HFD-induced, STZ-injected type 2 diabetic rats. The format is in vivo, Sprague-Dawley rats. As to conditions: STZ-injected HFD-fed rats, 2 mg/kg/3 days i.p. for 30 days, compared to STZ+vehicle. The method, then: The Sprague-Dawley rats were allocated to two dietary regimens by feeding either normal or HFD ad libitum, for the initial period of 2 weeks. After 2 weeks of dietary manipulation, the group of rats fed HFD were injected intraperitoneally (i.p.) with a low dose of STZ (35 mg/kg b.w.), while the respective control rats were given vehicle citrate buffer (pH 4.5) in a dose volume of 1 mL/kg, i.p. Seven days after STZ injection, rats were screened for blood glucose levels. Overnight fasted (10-12 hours) animals were given glucose (3 g/kg b.w.) by gastric intubation. After 2 hours of oral administration, blood samples were taken from lateral tail vein, left to coagulate and centrifuged; then serum glucose concentration was measured. Rats having serum glucose ≥200 mg/dL after 2 hours of glucose intake were considered diabetic and selected for further pharmacological studies. The rats were allowed to continue to feed on their respective diets until the end of the study (16). […]
The levels of insulin, sICAM-1, sVCAM-1, and E-selectin in serum were determined by using sandwich ELISA (R&D) according to manufacturer's protocols.
(ELISA stands for enzyme-linked immunosorbent assay.)

Test [2] has as its system neointima formation of aorta. Description: Neointima formation of aorta (HE stain) in STZ-treated HFD-fed rats. The format is in vivo. As for the experimental part:
The ascending part of aorta were taken from mice, including control health mice and HFD induced diabetic mice, with and without treatment of C70PLY4, and kept in 10% formalin buffered for 24 h. The specimens were routinely embedded in paraffin blocks and cut in transversal sections (3 μm). The slides were stained with hematoxylin and eosin. The specimens were analyzed with light microscope.
The present study determined if C70PLY4 attenuates the status of atherosclerosis in HFD-fed rats.

The target of the next test is MD2/TLR4 interaction (Homo sapiens, UniProt O00206). Description: In vitro protein competition binding assay for MD2/TLR4 interaction. As to conditions: MD2 50 nM. As for the experimental part: The recombinant TLR4 protein was diluted in PBS (2 μg/mL) and immobilized on a 96-well (100 ng/well) ELISA plate by incubation at 37° C. for 2 h. The wells were washed three times with PBS, followed by blocking with the addition of 300 μL 5% BSA in PBS at ambient temperature overnight. Then, the plate was rewashed three times with PBST before performed competition binding assay. The binding of MD2 (50 nM) to TLR4 was competed by adding various amounts (2-fold serial dilution from 50 μM to 3.05 nM) of C70PLY4, N35PLY4, or M50PLY4 peptide, and the residual binding was examined using anti-MD2 and anti-mouse-IgG-HRP antibodies diluted in 1% BSA as described in herein.
Chain of MD2/TLR4 interaction (O00206 24-631): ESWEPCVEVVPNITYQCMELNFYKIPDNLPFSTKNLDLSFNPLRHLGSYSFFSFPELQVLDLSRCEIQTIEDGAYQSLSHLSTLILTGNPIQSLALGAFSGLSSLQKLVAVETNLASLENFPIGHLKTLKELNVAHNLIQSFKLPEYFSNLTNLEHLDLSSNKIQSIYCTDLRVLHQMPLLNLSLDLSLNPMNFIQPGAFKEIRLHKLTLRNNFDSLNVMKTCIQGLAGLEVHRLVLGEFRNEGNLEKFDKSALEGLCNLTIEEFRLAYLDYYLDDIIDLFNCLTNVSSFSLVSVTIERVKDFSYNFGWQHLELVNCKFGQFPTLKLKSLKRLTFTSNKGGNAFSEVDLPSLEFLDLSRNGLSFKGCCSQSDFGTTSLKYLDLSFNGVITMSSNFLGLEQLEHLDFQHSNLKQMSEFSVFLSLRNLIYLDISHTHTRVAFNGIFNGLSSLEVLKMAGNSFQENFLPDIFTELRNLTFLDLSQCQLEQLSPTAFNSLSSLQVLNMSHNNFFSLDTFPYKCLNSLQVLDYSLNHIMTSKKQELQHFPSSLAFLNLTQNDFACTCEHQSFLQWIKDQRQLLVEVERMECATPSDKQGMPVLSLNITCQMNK

In the case of “QDLTAHFTTSIPLKGNVRNLSVKIRECTGLAWEWWRTVYEKTDLPLVRKRTISIWGTTLYPQVEDKVEND [C70PLY4]”, the “PMNs migration, WT mice model (FIG. 10)” value in the test on TLR4 (PMNs from C3H/HeN mice, LPS 1 μg/ml, HUVEC monolayer Transwell) is “significant inhibition of PMNs cell migration”. In the test on TLR4 (WT mice model, LPS-induced), the “LPS induced PMN migration (FIGS. 11-12)” value was “inhibitory effects”. Also, the blood insulin levels result in test [1] was “increased blood insulin levels”. In addition, in test [2], the “neointima formation of aorta induced by STZ” value is given as “significantly attenuated the status of neointima formation”. For the same sequence, at MD2/TLR4 interaction (TLR4-coated well), the “concentration at which MD2 protein is completely competed away” value turned out to be 6.25 µM. The “blocking capability for MD2 and TLR4 protein interaction (in words)” value on MD2/TLR4 interaction (peptide 50 μM to 3.05 nM) is “dose-dependent blocking capability”.

Values taken from patent publication US10287328B2, “Treatment of diabetes, toll-like receptor 4 modulators and methods for using the same” (KeMyth Biotech Co., Ltd., priority 2016, dated 2019).
